Measured values from ChEMBL document CHEMBL1201862, “PubChem BioAssay data set” (2004).
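Five concentrations, 48 hours, 96-well plates. GI50: concentration for 50% inhibition of growth.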 Activity calls are given as the source filed them. No stated cut-off is given here; in the data, active = GI50 up to about 1.1 µM and inactive = higher.

Assays:
Experiment in all cases: NCI tumour cell line growth inhibition, 48 h
SNB-75 = system: SNB-75
A549 = system: A549
UACC-257 = system: UACC-257
OVCAR-8 = system: OVCAR-8
M14 = system: M14
MDA-MB-435 = system: MDA-MB-435
HCT-15 = system: HCT-15
OVCAR-5 = system: OVCAR-5
NCI-H522 = system: NCI-H522
U-251 = system: U-251
MOLT-4 = system: MOLT-4
SN12C = system: SN12C
SF-268 = system: SF-268
ACHN = system: ACHN
SW-620 = system: SW-620
K562 = system: K562
OVCAR-3 = system: OVCAR-3
TK-10 = system: TK-10
Malme-3M = system: Malme-3M
NCI-H226 = system: NCI-H226

O=C(c1ccc(F)cc1)c1cccc(C(=O)c2ccc(F)cc2)n1
GI50 (SNB-75): 12.6 µM (inactive)
GI50 (A549): 69.2 µM (inactive)
GI50 (UACC-257): 47.4 µM (inactive)
GI50 (OVCAR-8): 81.5 µM (inactive)
GI50 (M14): 62.2 µM (inactive)
GI50 (MDA-MB-435): > 100 µM (inactive)
GI50 (HCT-15): > 100 µM
GI50 (OVCAR-5): > 95.3 µM (inactive)
GI50 (NCI-H522): 20.3 µM (inactive)
GI50 (U-251): 19.1 µM (inactive)
GI50 (MOLT-4): > 100 µM (inactive)
GI50 (SN12C): 55.2 µM (inactive)
GI50 (SF-268): 24.6 µM (inactive)
GI50 (ACHN): 46.2 µM (inactive)
GI50 (SW-620): > 83.9 µM (inactive)
GI50 (K562): > 100 µM (inactive)
GI50 (OVCAR-3): > 100 µM (inactive)
GI50 (TK-10): 39.7 µM (inactive)
GI50 (Malme-3M): > 77.6 µM (inactive)
GI50 (NCI-H226): > 45.4 µM (inactive)

CC1=COC2=C(C)C(=O)C(=O)c3c(C)ccc1c32 [MANSONONE F]
GI50 (SNB-75): 9.06 µM (inactive)
GI50 (A549): 2.92 µM (inactive)
GI50 (UACC-257): 7.23 µM (inactive)
GI50 (OVCAR-8): 2.7 µM (inactive)
GI50 (M14): 2.86 µM (inactive)
GI50 (MDA-MB-435): 1.9 µM (inactive)
GI50 (HCT-15): 2.43 µM
GI50 (OVCAR-5): 18.2 µM (inactive)
GI50 (NCI-H522): 2.17 µM (inactive)
GI50 (U-251): 4.38 µM (inactive)
GI50 (MOLT-4): 2.56 µM (inactive)
GI50 (SN12C): 3.71 µM (inactive)
GI50 (SF-268): 4.44 µM (inactive)
GI50 (ACHN): 8.3 µM (inactive)
GI50 (SW-620): 2.61 µM (inactive)
GI50 (K562): 3.66 µM (inactive)
GI50 (OVCAR-3): 0.349 µM (active)
GI50 (TK-10): 42.1 µM (inactive)
GI50 (Malme-3M): 1.69 µM (inactive)
GI50 (NCI-H226): 14.4 µM (inactive)

C=CCC1NCCC2=C1C(S(=O)(=O)c1ccc(C)cc1)c1ccccc12 (centres undefined)
GI50 (SNB-75): 5.64 µM (inactive)
GI50 (A549): 15.1 µM (inactive)
GI50 (UACC-257): 20.2 µM (inactive)
GI50 (OVCAR-8): 14.3 µM (inactive)
GI50 (M14): 11.8 µM (inactive)
GI50 (MDA-MB-435): 5.47 µM (inactive)
GI50 (HCT-15): 11.9 µM
GI50 (OVCAR-5): 18.1 µM (inactive)
GI50 (NCI-H522): 10.1 µM (inactive)
GI50 (U-251): 11.5 µM (inactive)
GI50 (MOLT-4): 6.56 µM (inactive)
GI50 (SN12C): 14.4 µM (inactive)
GI50 (SF-268): 14.9 µM (inactive)
GI50 (ACHN): 7.16 µM (inactive)
GI50 (SW-620): 14.2 µM (inactive)
GI50 (K562): 5.62 µM (inactive)
GI50 (OVCAR-3): 12.5 µM (inactive)
GI50 (TK-10): 16.4 µM (inactive)
GI50 (Malme-3M): 11.2 µM (inactive)
GI50 (NCI-H226): 16.8 µM (inactive)

c1csc(-c2nn3c(C45CC6CC(CC(C6)C4)C5)nnc3s2)c1
GI50 (SNB-75): > 100 µM (inactive)
GI50 (A549): > 100 µM (inactive)
GI50 (UACC-257): > 100 µM (inactive)
GI50 (OVCAR-8): > 100 µM (inactive)
GI50 (M14): > 100 µM (inactive)
GI50 (MDA-MB-435): > 100 µM (inactive)
GI50 (HCT-15): > 100 µM
GI50 (OVCAR-5): > 100 µM (inactive)
GI50 (NCI-H522): > 100 µM (inactive)
GI50 (U-251): > 100 µM (inactive)
GI50 (MOLT-4): > 100 µM (inactive)
GI50 (SN12C): > 100 µM (inactive)
GI50 (SF-268): > 100 µM (inactive)
GI50 (ACHN): > 100 µM (inactive)
GI50 (SW-620): > 100 µM (inactive)
GI50 (K562): > 100 µM (inactive)
GI50 (OVCAR-3): > 100 µM (inactive)
GI50 (Malme-3M): > 100 µM (inactive)
GI50 (NCI-H226): > 100 µM (inactive)

C=C1C(=O)O[C@H]2C/C(C)=C/CC[C@@]3(C)O[C@](C)(CC[C@@H]3I)[C@@H](I)C[C@@H]12
GI50 (SNB-75): 6.03 µM (inactive)
GI50 (A549): 6.78 µM (inactive)
GI50 (UACC-257): 5.9 µM (inactive)
GI50 (OVCAR-8): 1.88 µM (inactive)
GI50 (M14): 10.9 µM (inactive)
GI50 (MDA-MB-435): 3.86 µM (inactive)
GI50 (HCT-15): 2.4 µM
GI50 (OVCAR-5): 10.2 µM (inactive)
GI50 (NCI-H522): 3.05 µM (inactive)
GI50 (U-251): 4.49 µM (inactive)
GI50 (MOLT-4): 0.925 µM (active)
GI50 (SN12C): 4.2 µM (inactive)
GI50 (SF-268): 6.92 µM (inactive)
GI50 (ACHN): 7.03 µM (inactive)
GI50 (SW-620): 3.81 µM (inactive)
GI50 (K562): 1.95 µM (inactive)
GI50 (OVCAR-3): 3.21 µM (inactive)
GI50 (TK-10): 6.03 µM (inactive)
GI50 (Malme-3M): 7.59 µM (inactive)
GI50 (NCI-H226): 0.869 µM (active)

CCn1c(SCC(=O)N/N=C2\SCC(=O)N2c2ccc(C)cc2)nc2ccccc2c1=O
GI50 (SNB-75): 17.1 µM (inactive)
GI50 (A549): 21.2 µM (inactive)
GI50 (UACC-257): 15.7 µM (inactive)
GI50 (OVCAR-8): 17 µM (inactive)
GI50 (M14): 36.1 µM (inactive)
GI50 (MDA-MB-435): 21.2 µM (inactive)
GI50 (HCT-15): 32.1 µM
GI50 (OVCAR-5): 20.5 µM (inactive)
GI50 (NCI-H522): 22.4 µM (inactive)
GI50 (U-251): 20.7 µM (inactive)
GI50 (MOLT-4): 25.9 µM (inactive)
GI50 (SN12C): 27 µM (inactive)
GI50 (SF-268): 20.3 µM (inactive)
GI50 (ACHN): 18.6 µM (inactive)
GI50 (SW-620): 33.7 µM (inactive)
GI50 (K562): 29.2 µM (inactive)
GI50 (OVCAR-3): 21.4 µM (inactive)
GI50 (TK-10): 15 µM (inactive)
GI50 (Malme-3M): 21.9 µM (inactive)
GI50 (NCI-H226): 23.8 µM (inactive)

CCOC(=O)CNC1=NNS(=O)(=O)c2ccccc21
GI50 (SNB-75): > 100 µM (inactive)
GI50 (A549): > 100 µM (inactive)
GI50 (UACC-257): > 100 µM (inactive)
GI50 (OVCAR-8): > 100 µM (inactive)
GI50 (M14): > 100 µM (inactive)
GI50 (MDA-MB-435): > 100 µM (inactive)
GI50 (HCT-15): > 100 µM
GI50 (OVCAR-5): > 100 µM (inactive)
GI50 (NCI-H522): > 100 µM (inactive)
GI50 (U-251): > 100 µM (inactive)
GI50 (MOLT-4): 54.1 µM (inactive)
GI50 (SN12C): > 100 µM (inactive)
GI50 (SF-268): > 100 µM (inactive)
GI50 (ACHN): > 100 µM (inactive)
GI50 (SW-620): > 100 µM (inactive)
GI50 (K562): > 100 µM (inactive)
GI50 (OVCAR-3): > 100 µM (inactive)
GI50 (TK-10): > 100 µM (inactive)
GI50 (Malme-3M): > 100 µM (inactive)
GI50 (NCI-H226): > 100 µM (inactive)
